Assay results as given in PMC11249646, “Small-Molecule Disruptors of the Interaction between Calcium- and Integrin-Binding Protein 1 and Integrin αIIbβ3 as Novel Antiplatelet Agents” (ACS Pharmacology & Translational Science, 2024).

target: T1, CIB1 and αIIb interaction (GST-CIB1 : F-αIIb peptide) (Homo sapiens, UniProt Q99828); assay: FP assay, 384-well format (screen); assay type: binding; set-up: 384-well SCREEN Efficacy (%): concentration or dose not given beside the values; conditions: F-αIIb peptide
T1 construct: made in house; host or cells: BL-21 plus RIL cells (E. coli)
T1 sequence (Q99828 1-191): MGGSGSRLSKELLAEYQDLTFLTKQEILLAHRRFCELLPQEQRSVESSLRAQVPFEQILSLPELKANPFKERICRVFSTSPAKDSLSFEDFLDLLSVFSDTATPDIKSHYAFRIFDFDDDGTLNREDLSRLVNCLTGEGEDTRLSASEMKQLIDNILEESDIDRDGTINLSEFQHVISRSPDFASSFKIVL

Compound | 384-well SCREEN Efficacy (%)
COc1ccc(C(=O)Nc2nc(-c3ccccc3)cs2)c(NS(=O)(=O)c2ccc(C)cc2)c1.O=C(O)C(F)(F)F [NCGC00262390-01] | 24
O=c1sc2ccccc2c(O)c1C1CC(c2ccc(-c3ccc(Br)cc3)cc2)Cc2ccccc21 (stereo not drawn) [NCGC00262959-01] | 87
Cc1ccc(S(=O)(=O)Nc2cc([N+](=O)[O-])ccc2C(=O)Nc2nc(-c3ccccc3)cs2)cc1.O=C(O)C(F)(F)F [NCGC00262992-01] | 135

same assay, conditions: F-αIIb peptide; YES/NO

Compound | 384-well SCREEN Confirm?
Cc1ccc(S(=O)(=O)Nc2cc([N+](=O)[O-])ccc2C(=O)Nc2nc(-c3ccccc3)cs2)cc1.O=C(O)C(F)(F)F [NCGC00262992-01] | YES

same assay, conditions: F-αIIb peptide; read-out: 384-well SCREEN IC50

Compound | IC50 [µM]
COc1ccc(C(=O)Nc2nc(-c3ccccc3)cs2)c(NS(=O)(=O)c2ccc(C)cc2)c1.O=C(O)C(F)(F)F [NCGC00262390-01] | > 120
O=c1sc2ccccc2c(O)c1C1CC(c2ccc(-c3ccc(Br)cc3)cc2)Cc2ccccc21 (stereo not drawn) [NCGC00262959-01] | > 120
Cc1ccc(S(=O)(=O)Nc2cc([N+](=O)[O-])ccc2C(=O)Nc2nc(-c3ccccc3)cs2)cc1.O=C(O)C(F)(F)F [NCGC00262992-01] | > 120

target: T2, GST-CIB1 : F-scrambled peptide (Homo sapiens, UniProt Q99828); assay: FP scrambled-peptide counter screen, 384-well format; assay type: binding; conditions: F-scrambled peptide
T2 construct: made in house; host or cells: BL-21 plus RIL cells (E. coli)
T2 sequence (Q99828 1-191): T1 sequence (Q99828 1-191)

Compound | 384-well COUNTERSCREEN Efficacy (%)
COc1ccc(C(=O)Nc2nc(-c3ccccc3)cs2)c(NS(=O)(=O)c2ccc(C)cc2)c1.O=C(O)C(F)(F)F [NCGC00262390-01] | 102
O=c1sc2ccccc2c(O)c1C1CC(c2ccc(-c3ccc(Br)cc3)cc2)Cc2ccccc21 (stereo not drawn) [NCGC00262959-01] | 156
Cc1ccc(S(=O)(=O)Nc2cc([N+](=O)[O-])ccc2C(=O)Nc2nc(-c3ccccc3)cs2)cc1.O=C(O)C(F)(F)F [NCGC00262992-01] | 115

same assay, conditions: F-scrambled peptide; read-out: 384-well COUNTERSCREEN IC50

Compound | IC50 [µM]
COc1ccc(C(=O)Nc2nc(-c3ccccc3)cs2)c(NS(=O)(=O)c2ccc(C)cc2)c1.O=C(O)C(F)(F)F [NCGC00262390-01] | 31.6
O=c1sc2ccccc2c(O)c1C1CC(c2ccc(-c3ccc(Br)cc3)cc2)Cc2ccccc21 (stereo not drawn) [NCGC00262959-01] | 25.1
Cc1ccc(S(=O)(=O)Nc2cc([N+](=O)[O-])ccc2C(=O)Nc2nc(-c3ccccc3)cs2)cc1.O=C(O)C(F)(F)F [NCGC00262992-01] | 79.4

target: T3, CIB1 and αIIb interaction (CIB1-GST : F-αIIb peptide) (Homo sapiens, UniProt Q99828); assay: FP assay, 1536-well qHTS format (primary and confirmatory screen); assay type: binding; conditions: confirmatory screen, YES/NO call
T3 construct: made in house; host or cells: BL-21 plus RIL cells (E. coli)
T3 sequence (Q99828 1-191): T1 sequence (Q99828 1-191)

Compound | CONFIRMATORY SCREEN Confirm?
COc1ccc(C(=O)Nc2nc(-c3ccccc3)cs2)c(NS(=O)(=O)c2ccc(C)cc2)c1.O=C(O)C(F)(F)F [NCGC00262390-01] | YES
O=c1sc2ccccc2c(O)c1C1CC(c2ccc(-c3ccc(Br)cc3)cc2)Cc2ccccc21 (stereo not drawn) [NCGC00262959-01] | YES
Cc1ccc(S(=O)(=O)Nc2cc([N+](=O)[O-])ccc2C(=O)Nc2nc(-c3ccccc3)cs2)cc1.O=C(O)C(F)(F)F [NCGC00262992-01] | YES

same assay, conditions: confirmatory screen, qHTS curve class; negative sign = inhibitory curve

Compound | CONFIRMATORY SCREEN Curve Class
COc1ccc(C(=O)Nc2nc(-c3ccccc3)cs2)c(NS(=O)(=O)c2ccc(C)cc2)c1.O=C(O)C(F)(F)F [NCGC00262390-01] | -1.2
O=c1sc2ccccc2c(O)c1C1CC(c2ccc(-c3ccc(Br)cc3)cc2)Cc2ccccc21 (stereo not drawn) [NCGC00262959-01] | -1.4
Cc1ccc(S(=O)(=O)Nc2cc([N+](=O)[O-])ccc2C(=O)Nc2nc(-c3ccccc3)cs2)cc1.O=C(O)C(F)(F)F [NCGC00262992-01] | -1.1

same assay, conditions: confirmatory screen; negative = inhibition

Compound | CONFIRMATORY SCREEN Efficacy (%)
COc1ccc(C(=O)Nc2nc(-c3ccccc3)cs2)c(NS(=O)(=O)c2ccc(C)cc2)c1.O=C(O)C(F)(F)F [NCGC00262390-01] | -60
O=c1sc2ccccc2c(O)c1C1CC(c2ccc(-c3ccc(Br)cc3)cc2)Cc2ccccc21 (stereo not drawn) [NCGC00262959-01] | -49
Cc1ccc(S(=O)(=O)Nc2cc([N+](=O)[O-])ccc2C(=O)Nc2nc(-c3ccccc3)cs2)cc1.O=C(O)C(F)(F)F [NCGC00262992-01] | -97

same assay, conditions: confirmatory screen; read-out: CONFIRMATORY SCREEN IC50

Compound | IC50 [µM]
COc1ccc(C(=O)Nc2nc(-c3ccccc3)cs2)c(NS(=O)(=O)c2ccc(C)cc2)c1.O=C(O)C(F)(F)F [NCGC00262390-01] | 11.2
O=c1sc2ccccc2c(O)c1C1CC(c2ccc(-c3ccc(Br)cc3)cc2)Cc2ccccc21 (stereo not drawn) [NCGC00262959-01] | 7.1
Cc1ccc(S(=O)(=O)Nc2cc([N+](=O)[O-])ccc2C(=O)Nc2nc(-c3ccccc3)cs2)cc1.O=C(O)C(F)(F)F [NCGC00262992-01] | 5.6

same assay, conditions: qHTS FP screen hits, Table S2; negative = inhibition

Compound | Efficacy (%)
COc1ccc(C(=O)Nc2nc(-c3ccccc3)cs2)c(NS(=O)(=O)c2ccc(C)cc2)c1.O=C(O)C(F)(F)F [NCGC00262390-01] | -22
O=c1sc2ccccc2c(O)c1C1CC(c2ccc(-c3ccc(Br)cc3)cc2)Cc2ccccc21 (stereo not drawn) [NCGC00262959-01] | -38

same assay, conditions: qHTS FP screen hits, Table S2; one class per curve where COUNT > 1; negative sign = inhibitory curve

Compound | Curve Class
O=c1sc2ccccc2c(O)c1C1CC(c2ccc(-c3ccc(Br)cc3)cc2)Cc2ccccc21 (stereo not drawn) [NCGC00262959-01] | -1.2

same assay, conditions: qHTS FP screen hits, Table S2; read-out: IC50

Compound | IC50 [µM]
COc1ccc(C(=O)Nc2nc(-c3ccccc3)cs2)c(NS(=O)(=O)c2ccc(C)cc2)c1.O=C(O)C(F)(F)F [NCGC00262390-01] | 17.8
O=c1sc2ccccc2c(O)c1C1CC(c2ccc(-c3ccc(Br)cc3)cc2)Cc2ccccc21 (stereo not drawn) [NCGC00262959-01] | 17.8

same assay, conditions: qHTS primary screen hits, Table S2; negative = inhibition

Compound | Efficacy (%)
Cc1ccc(S(=O)(=O)Nc2cc([N+](=O)[O-])ccc2C(=O)Nc2nc(-c3ccccc3)cs2)cc1.O=C(O)C(F)(F)F [NCGC00262992-01] | -34

same assay, conditions: qHTS primary screen hits, Table S2; negative sign = inhibitory curve

Compound | Curve Class
Cc1ccc(S(=O)(=O)Nc2cc([N+](=O)[O-])ccc2C(=O)Nc2nc(-c3ccccc3)cs2)cc1.O=C(O)C(F)(F)F [NCGC00262992-01] | -2.4

same assay, conditions: qHTS primary screen hits, Table S2; read-out: IC50

Compound | IC50 [µM]
Cc1ccc(S(=O)(=O)Nc2cc([N+](=O)[O-])ccc2C(=O)Nc2nc(-c3ccccc3)cs2)cc1.O=C(O)C(F)(F)F [NCGC00262992-01] | 10

target: T2, GST-CIB1 : F-scrambled peptide; assay: FP scrambled-peptide counter screen, 1536-well format; assay type: binding; conditions: scrambled-peptide counterscreen

Compound | COUNTERSCREEN Efficacy (%)
COc1ccc(C(=O)Nc2nc(-c3ccccc3)cs2)c(NS(=O)(=O)c2ccc(C)cc2)c1.O=C(O)C(F)(F)F [NCGC00262390-01] | 92
O=c1sc2ccccc2c(O)c1C1CC(c2ccc(-c3ccc(Br)cc3)cc2)Cc2ccccc21 (stereo not drawn) [NCGC00262959-01] | 118
Cc1ccc(S(=O)(=O)Nc2cc([N+](=O)[O-])ccc2C(=O)Nc2nc(-c3ccccc3)cs2)cc1.O=C(O)C(F)(F)F [NCGC00262992-01] | 42

same assay, conditions: scrambled-peptide counterscreen, YES/NO call

Compound | COUNTERSCREEN Confirm?
COc1ccc(C(=O)Nc2nc(-c3ccccc3)cs2)c(NS(=O)(=O)c2ccc(C)cc2)c1.O=C(O)C(F)(F)F [NCGC00262390-01] | YES
O=c1sc2ccccc2c(O)c1C1CC(c2ccc(-c3ccc(Br)cc3)cc2)Cc2ccccc21 (stereo not drawn) [NCGC00262959-01] | YES
Cc1ccc(S(=O)(=O)Nc2cc([N+](=O)[O-])ccc2C(=O)Nc2nc(-c3ccccc3)cs2)cc1.O=C(O)C(F)(F)F [NCGC00262992-01] | YES

same assay, conditions: scrambled-peptide counterscreen, qHTS curve class

Compound | COUNTERSCREEN Curve Class
Cc1ccc(S(=O)(=O)Nc2cc([N+](=O)[O-])ccc2C(=O)Nc2nc(-c3ccccc3)cs2)cc1.O=C(O)C(F)(F)F [NCGC00262992-01] | 4

same assay, conditions: scrambled-peptide counterscreen; read-out: COUNTERSCREEN IC50

Compound | IC50 [µM]
COc1ccc(C(=O)Nc2nc(-c3ccccc3)cs2)c(NS(=O)(=O)c2ccc(C)cc2)c1.O=C(O)C(F)(F)F [NCGC00262390-01] | 70.8
O=c1sc2ccccc2c(O)c1C1CC(c2ccc(-c3ccc(Br)cc3)cc2)Cc2ccccc21 (stereo not drawn) [NCGC00262959-01] | 79.4
